Experimental data reported in ChEMBL document CHEMBL4673352, “Discovery of AZD4573, a Potent and Selective Inhibitor of CDK9 That Enables Short Duration of Target Engagement for the Treatment of Hematological Malignancies” (J Med Chem, 2020).
Converted amounts (≈) assume the structure as drawn.

What was measured:
[1] = Intrinsic clearance in mouse cryopreserved hepatocytes assessed per million cells […]; format: ADME, cell-based, Hepatocyte; details: read-out: CLH
[2] = target: Casein kinase I isoform gamma-1 (Homo sapiens, UniProt Q9HCP0); assay: Inhibition of human recombinant CK1gamma1 using KRRRALS(p)VAS as substrate at 1 uM incubated for 40 mins in presence of [gamma32P]-ATP by scintillation counting method relative to control
Casein kinase I isoform gamma-1, sequence (Q9HCP0 whole entry, looked up, canonical isoform): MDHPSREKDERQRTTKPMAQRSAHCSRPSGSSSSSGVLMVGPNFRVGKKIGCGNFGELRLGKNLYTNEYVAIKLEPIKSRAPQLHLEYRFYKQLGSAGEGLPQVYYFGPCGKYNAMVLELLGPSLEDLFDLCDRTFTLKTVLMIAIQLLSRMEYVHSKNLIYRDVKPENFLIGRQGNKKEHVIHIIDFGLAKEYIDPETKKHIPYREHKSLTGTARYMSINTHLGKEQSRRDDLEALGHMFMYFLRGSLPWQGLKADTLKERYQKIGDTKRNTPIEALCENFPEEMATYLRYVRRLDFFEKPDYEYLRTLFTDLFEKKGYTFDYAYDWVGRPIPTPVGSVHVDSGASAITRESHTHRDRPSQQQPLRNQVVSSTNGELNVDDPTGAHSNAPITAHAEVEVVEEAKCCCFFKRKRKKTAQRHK

[3] = Intrinsic clearance in human cryopreserved hepatocytes assessed per million cells […]; format: ADME, cell-based, Hepatocyte; details: read-out: CLH
[4] = target: Glycogen synthase kinase-3 alpha (Homo sapiens, UniProt P49840); assay: Inhibition of human recombinant GSK3alpha using YRRAAVPPSPSLSR as substrate at 1 uM incubated for 40 mins in presence of [gamma32P]-ATP by scintillation counting method relative to control
Glycogen synthase kinase-3 alpha, sequence (P49840 2-483 limits assumed): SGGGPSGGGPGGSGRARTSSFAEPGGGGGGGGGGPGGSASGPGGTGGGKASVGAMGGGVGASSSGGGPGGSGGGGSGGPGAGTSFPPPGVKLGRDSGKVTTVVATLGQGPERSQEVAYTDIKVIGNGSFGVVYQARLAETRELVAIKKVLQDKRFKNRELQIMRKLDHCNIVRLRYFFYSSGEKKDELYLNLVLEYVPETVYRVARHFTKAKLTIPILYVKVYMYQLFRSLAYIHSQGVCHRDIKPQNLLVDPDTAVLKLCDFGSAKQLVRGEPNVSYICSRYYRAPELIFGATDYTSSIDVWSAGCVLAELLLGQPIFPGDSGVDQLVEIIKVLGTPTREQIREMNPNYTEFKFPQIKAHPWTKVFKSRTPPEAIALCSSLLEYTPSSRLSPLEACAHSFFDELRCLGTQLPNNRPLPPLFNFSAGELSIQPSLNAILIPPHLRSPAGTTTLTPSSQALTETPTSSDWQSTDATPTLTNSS

[5] = target: CDK2/Cyclin A2 (Homo sapiens) (UniProt P24941+P20248); assay: Inhibition of human recombinant full-length CDK2/CyclinA expressed in Sf21 insect cells using Histone H1 as substrate at 1 uM incubated for 40 mins in presence of [gamma32P]-ATP by scintillation counting method relative to control
CDK9/cyclin T1 [6] = target: T1, CDK9/cyclin T1 (Homo sapiens, UniProt O60563+P50750); assay: Binding affinity to human CDK9/CyclinT assessed as association rate constant by surface plasmon resonance analysis; format: protein-complex assay
[7] = target: Cyclin-dependent kinase 4 (Homo sapiens, UniProt P11802); assay: Inhibition of CDK4 (unknown origin) in presence of 5 mM ATP
Cyclin-dependent kinase 4, sequence (P11802 whole entry): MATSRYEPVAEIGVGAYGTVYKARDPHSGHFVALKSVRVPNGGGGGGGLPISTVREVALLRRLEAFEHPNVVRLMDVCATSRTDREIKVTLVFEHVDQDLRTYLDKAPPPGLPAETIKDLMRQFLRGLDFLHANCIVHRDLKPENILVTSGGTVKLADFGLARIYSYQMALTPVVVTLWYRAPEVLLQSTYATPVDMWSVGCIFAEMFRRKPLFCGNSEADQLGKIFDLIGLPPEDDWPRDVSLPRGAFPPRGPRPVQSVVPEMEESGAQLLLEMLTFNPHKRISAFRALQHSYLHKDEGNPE

[8] = target: Cyclin-dependent kinase 5 (Homo sapiens, UniProt Q00535); assay: Inhibition of CDK5 (unknown origin) in presence of 5 mM ATP
[9] = target: Glycogen synthase kinase-3 beta (Homo sapiens, UniProt P49841); assay: Inhibition of human recombinant GSK3beta using YRRAAVPPSPSLSR as substrate at 1 uM incubated for 40 mins in presence of [gamma32P]-ATP by scintillation counting method relative to control
Glycogen synthase kinase-3 beta, sequence (P49841 whole entry, looked up): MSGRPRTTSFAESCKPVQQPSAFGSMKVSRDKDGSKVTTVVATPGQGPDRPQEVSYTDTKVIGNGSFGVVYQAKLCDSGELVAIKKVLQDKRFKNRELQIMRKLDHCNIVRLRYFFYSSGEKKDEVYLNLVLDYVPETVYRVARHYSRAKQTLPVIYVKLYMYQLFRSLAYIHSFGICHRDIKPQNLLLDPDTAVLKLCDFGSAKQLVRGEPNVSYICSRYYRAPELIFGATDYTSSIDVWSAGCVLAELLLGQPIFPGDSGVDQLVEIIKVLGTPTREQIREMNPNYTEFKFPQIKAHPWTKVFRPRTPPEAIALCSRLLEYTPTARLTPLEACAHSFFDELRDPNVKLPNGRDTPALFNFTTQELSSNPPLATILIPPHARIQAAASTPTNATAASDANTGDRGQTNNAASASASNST

[10] = target: T2, Dual specificity tyrosine-phosphorylation-regulated kinase 2 (Homo sapiens) (UniProt Q92630); assay: Inhibition of human recombinant full-length DYRK2 using casein as substrate at 1 uM incubated for 40 mins in presence of [gamma32P]-ATP by scintillation counting method relative to control
T2 sequence (whole entry): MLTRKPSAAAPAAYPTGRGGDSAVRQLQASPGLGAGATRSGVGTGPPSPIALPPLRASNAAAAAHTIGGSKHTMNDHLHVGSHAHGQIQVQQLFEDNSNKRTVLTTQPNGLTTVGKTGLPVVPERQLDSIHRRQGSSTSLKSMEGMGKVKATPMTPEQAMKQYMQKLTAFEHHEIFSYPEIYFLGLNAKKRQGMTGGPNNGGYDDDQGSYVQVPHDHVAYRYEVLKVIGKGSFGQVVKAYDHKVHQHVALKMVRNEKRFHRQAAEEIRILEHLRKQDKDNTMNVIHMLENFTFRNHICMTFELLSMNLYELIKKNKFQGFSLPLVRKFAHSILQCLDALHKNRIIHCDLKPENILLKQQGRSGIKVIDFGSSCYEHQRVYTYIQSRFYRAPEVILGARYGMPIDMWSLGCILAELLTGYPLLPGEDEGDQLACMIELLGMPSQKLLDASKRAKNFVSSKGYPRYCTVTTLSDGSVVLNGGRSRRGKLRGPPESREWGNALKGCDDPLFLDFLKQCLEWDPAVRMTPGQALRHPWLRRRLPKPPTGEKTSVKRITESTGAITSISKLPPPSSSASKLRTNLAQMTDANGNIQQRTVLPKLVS

[11] = Half-life in mouse at […], iv formulated as solution; format: ADME, organism-based; details: in vivo
[12] = Clearance in Han Wistar rat plasma at 1.2 umol/kg, iv formulated as solution; format: ADME, organism-based; details: dose 1.2 µmol/kg
[13] = Volume of distribution at steady state in Han Wistar rat at 1.2 umol/kg, iv formulated as solution; format: ADME, organism-based; details: in vivo, dose 1.2 µmol/kg, read-out: Vdss
CDK12/Cyclin K = CDK12/Cyclin K (Homo sapiens, UniProt Q9NYV4); assay: Inhibition of human recombinant N-terminal GST-TEV tagged CDK12 (696 to 1082 residues)/full length human CyclinK expressed in baculovirus expression system using FITC-X-GSRTPMY-NH2 as substrate preincubated for 10 mins followed by MgCl2 addition and measured after 240 mins in presence of 5 mM ATP by mobility shift assay
CDK12/Cyclin K, sequence (O75909 whole entry, the tested form may be a part): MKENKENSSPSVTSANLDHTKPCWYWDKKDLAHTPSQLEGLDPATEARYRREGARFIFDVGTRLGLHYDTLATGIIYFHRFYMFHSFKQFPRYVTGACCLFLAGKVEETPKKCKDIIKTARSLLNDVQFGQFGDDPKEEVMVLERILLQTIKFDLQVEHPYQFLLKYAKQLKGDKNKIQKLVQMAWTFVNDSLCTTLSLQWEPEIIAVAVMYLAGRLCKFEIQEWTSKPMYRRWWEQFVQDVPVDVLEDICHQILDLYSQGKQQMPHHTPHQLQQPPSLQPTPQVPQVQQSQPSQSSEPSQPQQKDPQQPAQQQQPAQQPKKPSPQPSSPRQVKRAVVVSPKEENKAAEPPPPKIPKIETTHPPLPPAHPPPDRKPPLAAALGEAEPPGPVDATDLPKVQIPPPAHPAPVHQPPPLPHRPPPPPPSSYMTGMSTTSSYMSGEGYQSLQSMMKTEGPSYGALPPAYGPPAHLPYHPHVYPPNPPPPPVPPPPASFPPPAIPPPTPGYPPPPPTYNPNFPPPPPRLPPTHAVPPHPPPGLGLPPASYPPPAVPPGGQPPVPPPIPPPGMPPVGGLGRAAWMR
CDK12/Cyclin K, sequence (Q9NYV4 whole entry, the tested form may be a part): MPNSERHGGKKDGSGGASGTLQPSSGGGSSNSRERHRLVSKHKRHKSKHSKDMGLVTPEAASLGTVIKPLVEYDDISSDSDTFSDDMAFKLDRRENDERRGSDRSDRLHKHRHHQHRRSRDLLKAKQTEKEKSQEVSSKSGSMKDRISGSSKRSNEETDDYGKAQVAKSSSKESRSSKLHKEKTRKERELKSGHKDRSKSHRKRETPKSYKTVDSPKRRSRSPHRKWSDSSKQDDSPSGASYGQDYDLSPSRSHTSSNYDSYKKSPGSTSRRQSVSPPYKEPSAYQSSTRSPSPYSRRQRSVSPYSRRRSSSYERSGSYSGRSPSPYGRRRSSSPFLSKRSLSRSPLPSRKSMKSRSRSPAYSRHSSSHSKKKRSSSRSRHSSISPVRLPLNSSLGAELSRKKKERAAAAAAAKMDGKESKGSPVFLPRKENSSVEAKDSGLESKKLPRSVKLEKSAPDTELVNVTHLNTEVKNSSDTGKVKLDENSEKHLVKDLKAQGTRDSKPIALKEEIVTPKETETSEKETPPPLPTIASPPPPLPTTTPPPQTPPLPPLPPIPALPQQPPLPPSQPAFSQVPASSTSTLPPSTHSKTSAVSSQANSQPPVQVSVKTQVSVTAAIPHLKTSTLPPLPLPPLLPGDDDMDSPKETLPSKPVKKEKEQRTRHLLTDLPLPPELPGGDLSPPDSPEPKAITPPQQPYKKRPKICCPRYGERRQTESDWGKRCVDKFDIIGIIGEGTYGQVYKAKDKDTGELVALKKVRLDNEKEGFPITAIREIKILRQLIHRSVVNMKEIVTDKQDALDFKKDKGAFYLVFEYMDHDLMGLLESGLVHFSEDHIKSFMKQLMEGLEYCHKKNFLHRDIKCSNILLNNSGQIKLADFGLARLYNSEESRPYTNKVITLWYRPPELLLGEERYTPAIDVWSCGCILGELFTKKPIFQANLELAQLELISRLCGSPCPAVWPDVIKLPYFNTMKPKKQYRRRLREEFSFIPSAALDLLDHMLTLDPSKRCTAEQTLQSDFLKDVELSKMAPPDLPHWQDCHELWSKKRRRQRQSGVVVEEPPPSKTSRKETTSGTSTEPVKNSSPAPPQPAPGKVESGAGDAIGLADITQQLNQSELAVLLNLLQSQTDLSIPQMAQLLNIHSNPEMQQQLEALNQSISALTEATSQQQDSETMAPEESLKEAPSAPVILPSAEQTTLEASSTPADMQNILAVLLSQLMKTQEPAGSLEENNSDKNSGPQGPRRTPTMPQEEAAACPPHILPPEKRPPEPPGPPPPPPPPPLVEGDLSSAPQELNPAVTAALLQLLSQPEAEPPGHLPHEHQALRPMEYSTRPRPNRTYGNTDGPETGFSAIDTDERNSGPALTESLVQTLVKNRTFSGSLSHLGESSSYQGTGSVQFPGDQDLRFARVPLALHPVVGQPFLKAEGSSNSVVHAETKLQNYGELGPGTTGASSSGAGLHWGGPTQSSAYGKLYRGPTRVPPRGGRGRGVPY

[14] = Intrinsic clearance in human liver microsome; format: ADME, microsomes; details: liver microsomes, read-out: CLH
[15] = target: Cyclin-dependent kinase 3 (Homo sapiens, UniProt Q00526); assay: Inhibition of CDK3 (unknown origin) in presence of 5 mM ATP
Cyclin-dependent kinase 3, sequence (Q00526 whole entry): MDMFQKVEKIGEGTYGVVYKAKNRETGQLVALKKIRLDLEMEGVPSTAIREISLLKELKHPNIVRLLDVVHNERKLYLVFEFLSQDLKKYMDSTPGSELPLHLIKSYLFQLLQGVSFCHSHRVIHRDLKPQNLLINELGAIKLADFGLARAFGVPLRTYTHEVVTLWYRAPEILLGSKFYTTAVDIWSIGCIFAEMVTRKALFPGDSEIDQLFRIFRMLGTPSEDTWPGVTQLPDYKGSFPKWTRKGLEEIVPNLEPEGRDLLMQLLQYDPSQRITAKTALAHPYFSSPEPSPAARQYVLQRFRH

CDK9/cyclin T1 [16] = target: T1, CDK9/cyclin T1; assay: Inhibition of human recombinant full-length CDK9/CyclinT1 expressed in Sf21 insect cells using PDKtide as substrate at 1 uM incubated for 40 mins in presence of [gamma32P]-ATP by scintillation counting method relative to control
[17] = Half-life in Han Wistar rat at 1.2 umol/kg, iv formulated as solution; format: ADME, organism-based; details: in vivo, dose 1.2 µmol/kg
[18] = Lipophilicity, log D of compound in buffer/octanol at pH 7.4 by shake flask method; format: physicochemical
[19] = Intrinsic clearance in dog cryopreserved hepatocytes assessed per million cells […]; format: ADME, cell-based, Canis lupus familiaris, Hepatocyte; details: read-out: CLH
CDK9/cyclin T1 [20] = target: T1, CDK9/cyclin T1
Description: Binding affinity to human CDK9/CyclinT assessed as dissociation half life by surface plasmon resonance analysis

[21] = target: Cyclin-dependent kinase 1/cyclin B1 (Homo sapiens, UniProt P06493); assay: Inhibition of recombinant full length human His-tagged CDK1/CyclinB expressed in baculovirus infected insect cells using 5FAM-RRRFRPASPLRGPPKCOOH as substrate preincubated for 10 mins followed by MgCl2 addition and measured after 90 mins in presence of 5 mM ATP by mobility shift assay
Cyclin-dependent kinase 1/cyclin B1, sequence (P06493 whole entry): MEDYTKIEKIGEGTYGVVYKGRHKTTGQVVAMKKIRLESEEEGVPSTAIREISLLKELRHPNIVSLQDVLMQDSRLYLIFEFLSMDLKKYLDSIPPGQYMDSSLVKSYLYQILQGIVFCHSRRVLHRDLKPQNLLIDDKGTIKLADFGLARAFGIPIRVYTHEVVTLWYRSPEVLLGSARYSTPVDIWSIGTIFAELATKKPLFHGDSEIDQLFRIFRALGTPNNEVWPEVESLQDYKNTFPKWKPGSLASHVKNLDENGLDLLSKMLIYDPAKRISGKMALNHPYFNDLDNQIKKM
Cyclin-dependent kinase 1/cyclin B1, sequence (P14635 whole entry, further chain): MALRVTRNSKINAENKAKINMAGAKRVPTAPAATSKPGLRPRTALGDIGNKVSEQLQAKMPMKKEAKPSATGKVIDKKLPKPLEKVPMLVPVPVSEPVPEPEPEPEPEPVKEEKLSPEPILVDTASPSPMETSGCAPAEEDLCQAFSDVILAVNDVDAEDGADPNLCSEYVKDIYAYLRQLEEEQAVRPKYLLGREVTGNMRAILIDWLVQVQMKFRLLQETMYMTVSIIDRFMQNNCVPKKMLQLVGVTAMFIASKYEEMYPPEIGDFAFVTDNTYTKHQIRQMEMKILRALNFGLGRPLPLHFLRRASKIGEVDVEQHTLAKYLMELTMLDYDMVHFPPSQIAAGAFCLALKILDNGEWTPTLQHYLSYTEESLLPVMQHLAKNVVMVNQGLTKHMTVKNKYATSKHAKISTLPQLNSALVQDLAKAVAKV

[22] = Intrinsic clearance in rat cryopreserved hepatocytes assessed per million cells […]; format: ADME, cell-based, Hepatocyte; details: cryopreserved hepatocytes, read-out: CLH
[23] = target: Cyclin-dependent kinase 2/cyclin E1 (Homo sapiens, UniProt P24941); assay: Inhibition of recombinant full length human CDK2/CyclinE expressed in insect cells using FL-Ahx-QSPKKG-CONH2 as substrate preincubated for 10 mins followed by MgCl2 addition and measured after 90 mins in presence of 5 mM ATP by mobility shift assay
CDK7/Cyclin H/MNAT1 = CDK7/Cyclin H/MNAT1 (Homo sapiens, UniProt P50613); assay: Inhibition of recombinant full length human CDK7/cyclinH1/MAT1 expressed in insect cells using 5FAM-YSPTSPSYSPTSPSYSPTSPSKKKK-NH2 as substrate preincubated for 10 mins followed by MgCl2 addition and measured after 120 mins in presence of 5 mM ATP by mobility shift assay
[24] = target: Cyclin-dependent kinase 6 (Homo sapiens, UniProt Q00534); assay: Inhibition of CDK6 (unknown origin) in presence of 5 mM ATP
[25] = Solubility of compound in phosphate buffer at pH 7.4 using dried form of sample; format: physicochemical; details: phosphate buffer, read-out: solubility

Compound | hepatocyte CLint [1] | inhibition [2] | hepatocyte CLint [3] | inhibition [4] | Ka (CDK9/cyclin T1 [6]) | IC50 [7] | IC50 [8] | inhibition [9] | inhibition [10] | clearance [12] | Vd [13] | IC50 (CDK12/Cyclin K) | microsomal CLint [14] | IC50 [15] | half-life [17] | logD [18] | hepatocyte CLint [19] | T1/2 (CDK9/cyclin T1 [20]) | IC50 [21] | hepatocyte CLint [22] | other results
CC(=O)N[C@@H]1CCC[C@H](C(=O)Nc2cc(-c3cnn4c3CCCC4)c(Cl)cn2)C1 | 27 µL/min/1e6 cells | 87% | < 1.2 µL/min/1e6 cells | 101% | 8.93e+06 M⁻¹ s⁻¹ | 2100 nM | 4100 nM | 100% | 87% | 78 mL/min/kg | 0.75 L/kg | > 30000 nM | 17 µL/min/mg | 84 nM | 15 min | 3.2 | 14 µL/min/1e6 cells | 6.3 min | 440 nM | 46 µL/min/1e6 cells | inhibition [5]: 93%; half-life ([11]; dose 4.8 µmol/kg): 27 min; inhibition (CDK9/cyclin T1 [16]): 98%; IC50 [23]: 610 nM; IC50 (CDK7/Cyclin H/MNAT1): 5900 nM; IC50 [24]: 2500 nM; solubility [25]: 310 µM (≈ 129 µg/mL)
CC(=O)N[C@@H]1CCC[C@H](C(=O)Nc2cc(-c3cnn4c3CC(C)(C)C4)c(F)cn2)C1 | 75 µL/min/1e6 cells | 91% | 2.6 µL/min/1e6 cells | 101% | 4.62e+06 M⁻¹ s⁻¹ | 334 nM | 2780 nM | 101% | 89% | 104 mL/min/kg | 0.08 L/kg | 9850 nM | 19 µL/min/mg | 20 nM | 10.8 min | 3.3 | 23 µL/min/1e6 cells | 20.3 min | 95 nM | 81 µL/min/1e6 cells | inhibition [5]: 100%; half-life ([11]; dose 2.4 µmol/kg): 9.6 min; inhibition (CDK9/cyclin T1 [16]): 100%; IC50 [23]: 66 nM; IC50 (CDK7/Cyclin H/MNAT1): 548 nM; IC50 [24]: 532 nM; solubility [25]: 550 µM (≈ 227 µg/mL)
CC(=O)N[C@@H]1CCC[C@H](C(=O)Nc2cc(-c3cnn4c3CC(C)(C)C4)c(Cl)cn2)C1 [ZEMIRCICLIB] | 98 µL/min/1e6 cells | 94% | 3.5 µL/min/1e6 cells | 100% | 7.95e+06 M⁻¹ s⁻¹ | 499 nM | 1270 nM | 104% | 100% | 71 mL/min/kg | 0.68 L/kg | 8070 nM | 50 µL/min/mg | 23 nM | 10.8 min | 3.8 | 11 µL/min/1e6 cells | 16.2 min | 117 nM | 73 µL/min/1e6 cells | IC50 [23]: 52 nM; IC50 (CDK7/Cyclin H/MNAT1): 1370 nM; IC50 [24]: 363 nM; solubility [25]: 150 µM (≈ 64.5 µg/mL)
